Patent US11124519B2, “Cocrystal forms of ((1S,2S,4R)-4-{4-[(1S)-2,3-dihydro-1H-inden-1-ylamino]-7H-pyrrolo [2,3-d]pyrimidin-7-yl}-2-hydroxycyclopentyl) methyl sulfamate, formulations and uses thereof” (Millennium Pharmaceuticals, Inc., priority 2017, dated 2021)
“Also recorded” adds a separate entry of the source. Counter-ions that a name gives are not always drawn. Like-named read-outs stand apart in the source and are kept apart here. Marks after values point to notes of the source that are not given here. Blank lines part the entries; values can stand above or below the compound they belong to.

How the values were obtained:
[1] = Physical stability on exposure to elevated relative humidity (deliquescence); type: physicochemical; conditions: RT
From the text: Each cocrystal was also exposed to elevated relative humidity (first ˜75% RH, then ˜97% RH) for specified time periods (Table 20).

[2] = Chemical stability under temperature/humidity stress, HPLC purity at t=0 and t=14 days; conditions: for Purity after 60° C./75% RH, 2 weeks / Purity after 60° C./ambient RH, 2 weeks: HPLC; for Chemical stability under the stressed conditions (in words): 60° C./ambient RH and 60° C./75% RH; for Purity after 60° C./75% RH, 2 weeks / Chemical stability under the stressed conditions (in words) / Purity after 60° C./ambient RH, 2 weeks: 2 weeks; for Purity T = 0: unstressed, t=0, HPLC
Experimental: (§1) High Performance Liquid Chromatography (HPLC): HPLC analyses were performed using an Agilent 1100 series liquid chromatograph equipped with a variable wavelength detector and binary pump for sequence file 552094, and a diode array detector and quaternary pump for the remaining sequences. […] Degasser and an autosampler (set to ˜5° C.) were equipped for all sequences. The chromatographic column was a 150×4.6 mm Aquasil C18 column with 3 μm packing (Thermo Scientific). The column temperature was set to 40° C., and the detector wavelength was 280 nm with a bandwidth of 8 nm. The injection volume was 15 μL. Mobile phase A was 0.1% TFA in Water, and mobile phase B was 0.1% TFA in Acetonitrile. The flow rate used was 0.5 L/minute. Mobile phases were filtered and degassed through a 0.45 μm nylon filter under vacuum prior to use, except for Mobile phase A used in sequence file 554410 due to time constraints.
(§2) The physical and chemical stability of the glycolic acid, hippuric acid, malonic acid, and saccharin cocrystals were evaluated at two stress conditions (60° C./ambient relative humidity and 60° C./75% relative humidity) and compared to MLN4924 HCl salt.
(§3) Chemical stability was assessed via HPLC analysis of samples at t=0 and t=14 days.

[3] = Aqueous solubility estimate in water by solvent addition method; conditions: for Solubility Estimate: solvent addition method, visual assessment, rounded to nearest whole number
[4] = 2 weeks
Experimental: as §1, §2, §3

physchem = conditions: water, thermodynamic from solid
[5] = Physical stability under temperature/humidity stress, XRPD comparison of unstressed and stressed samples; type: physicochemical; conditions: 60° C./75% RH, 2 weeks; listed as MLN4924-HCl
Experimental: Physical stability was assessed by comparison of XRPD patterns of the unstressed and stressed samples.

[6] = cited from earlier work
[7] = listed as Glycolic acid (Form A)
[8] = listed as Hippuric acid (Form B)
[9] = listed as Malonic acid (Form M)

Observations After Stress ([1]; ~75% RH stress, ~4 days): Free flowing solids | Observations After Stress ([1]; ~97% RH stress, ~1 day): Free flowing solids | Purity after 60° C./75% RH, 2 weeks [2, 9]: 99.0% | Chemical stability under the stressed conditions (in words) ([2]; listed as malonic acid): highest final purity | Purity after 60° C./ambient RH, 2 weeks [2, 9]: 99.1% | Purity T = 0 [2, 9]: 99.0% | Purity T = 0 ([2]; listed as malonic acid): highest initial purity | solubility ([3]; thermodynamic from solid): < 1000 µg/mL
SMILES: NS(=O)(=O)OC[C@@H]1C[C@@H](n2ccc3c(N[C@H]4CCc5ccccc54)ncnc32)C[C@@H]1O [Form M, ((1S,2S,4R)-4-{4-[(1S)-2,3-dihydro-1H-inden-1-ylamino]-7H-pyrrolo[2,3-d]pyrimidin-7-yl}-2-hydroxycyclopentyl)methyl sulfamate]
Chemical stability under the stressed conditions (in words) ([2]; listed as malonic acid cocrystal): little decomposition; also recorded: improvement in stability over the current MLN4924 HCl form

Observations After Stress ([1]; ~75% RH stress, ~4 days): Free flowing solids | Observations After Stress ([1]; ~97% RH stress, ~1 day): Free flowing solids | Solubility Estimate [3]: <1^c mg/mL
SMILES: NS(=O)(=O)OC[C@@H]1C[C@@H](n2ccc3c(N[C@H]4CCc5ccccc54)ncnc32)C[C@@H]1O [Form N, ((1S,2S,4R)-4-{4-[(1S)-2,3-dihydro-1H-inden-1-ylamino]-7H-pyrrolo[2,3-d]pyrimidin-7-yl}-2-hydroxycyclopentyl)methyl sulfamate]

Form change (XRPD) [5]: new unique crystalline XRPD pattern | Purity after 60° C./75% RH, 2 weeks [2]: 96.6% | Chemical stability under the stressed conditions (in words) ([2]; listed as MLN4924-HCl): limited stability | Purity after 60° C./ambient RH, 2 weeks [2]: 94.6% | Purity T = 0 [2]: 98.2%
SMILES: NS(=O)(=O)OC[C@@H]1C[C@@H](n2ccc3c(N[C@H]4CCc5ccccc54)ncnc32)C[C@@H]1O [HCl, ((1S,2S,4R)-4-{4-[(1S)-2,3-dihydro-1H-inden-1-ylamino]-7H-pyrrolo[2,3-d]pyrimidin-7-yl}-2-hydroxycyclopentyl)methyl sulfamate, reference compound]
Chemical stability during accelerated stress condition [6]: limited chemical stability

The next lines start with the compound.

SMILES: NS(=O)(=O)OC[C@@H]1C[C@@H](n2ccc3c(N[C@H]4CCc5ccccc54)ncnc32)C[C@@H]1O [Form A, ((1S,2S,4R)-4-{4-[(1S)-2,3-dihydro-1H-inden-1-ylamino]-7H-pyrrolo[2,3-d]pyrimidin-7-yl}-2-hydroxycyclopentyl)methyl sulfamate]
Observations After Stress ([1]; ~75% RH stress, ~3 days): Free flowing solids | Observations After Stress ([1]; ~97% RH stress, ~2 days): Free flowing solids | Purity after 60° C./75% RH, 2 weeks [2, 7]: 93.0% | Chemical stability under the stressed conditions (in words) ([2]; listed as glycolic acid cocrystal): limited stability | Purity after 60° C./ambient RH, 2 weeks [2, 7]: 95.9% | Purity T = 0 [2, 7]: 96.9% | Solubility Estimate [3]: <1^c mg/mL

SMILES: NS(=O)(=O)OC[C@@H]1C[C@@H](n2ccc3c(N[C@H]4CCc5ccccc54)ncnc32)C[C@@H]1O [Form B, ((1S,2S,4R)-4-{4-[(1S)-2,3-dihydro-1H-inden-1-ylamino]-7H-pyrrolo[2,3-d]pyrimidin-7-yl}-2-hydroxycyclopentyl)methyl sulfamate]
Observations After Stress ([1]; ~75% RH stress, ~3 days): Free flowing solids | Observations After Stress ([1]; ~97% RH stress, ~2 days): Free flowing solids | Purity after 60° C./75% RH, 2 weeks [2, 8]: 93.9% | Chemical stability under the stressed conditions (in words) ([2]; listed as hippuric acid cocrystal): little decomposition; also recorded: improvement in stability over the current MLN4924 HCl form | Purity after 60° C./ambient RH, 2 weeks [2, 8]: 94.1% | Purity T = 0 [2, 8]: 94.4% | Solubility Estimate [3]: <1 mg/mL

SMILES: NS(=O)(=O)OC[C@@H]1C[C@@H](n2ccc3c(N[C@H]4CCc5ccccc54)ncnc32)C[C@@H]1O [Form F, ((1S,2S,4R)-4-{4-[(1S)-2,3-dihydro-1H-inden-1-ylamino]-7H-pyrrolo[2,3-d]pyrimidin-7-yl}-2-hydroxycyclopentyl)methyl sulfamate]
Observations After Stress ([1]; ~75% RH stress, ~3 days): Free flowing solids | Observations After Stress ([1]; ~97% RH stress, ~2 days): Free flowing solids | Chemical stability under the stressed conditions (in words) [4]: improvement in stability over the current MLN4924 HCl form | Purity after 60° C./75% RH, 2 weeks ([2]; listed as Saccharin (Form F)): 91.0% | Purity after 60° C./ambient RH, 2 weeks ([2]; listed as Saccharin (Form F)): 91.2% | Purity T = 0 ([2]; listed as Saccharin (Form F)): 91.2% | Purity T = 0 ([2]; listed as saccharin cocrystal): about 91%

SMILES: NS(=O)(=O)OC[C@@H]1C[C@@H](n2ccc3c(N[C@H]4CCc5ccccc54)ncnc32)C[C@@H]1O [Form G, ((1S,2S,4R)-4-{4-[(1S)-2,3-dihydro-1H-inden-1-ylamino]-7H-pyrrolo[2,3-d]pyrimidin-7-yl}-2-hydroxycyclopentyl)methyl sulfamate]
Observations After Stress ([1]; ~75% RH stress, ~3 days): Free flowing solids | Observations After Stress ([1]; ~97% RH stress, ~2 days): Slightly tacky solids | Observations After Stress ([1]; ~97% RH stress, ~2 days, listed as solvated piperazine cocrystal): slightly tacky

SMILES: NS(=O)(=O)OC[C@@H]1C[C@@H](n2ccc3c(N[C@H]4CCc5ccccc54)ncnc32)C[C@@H]1O [Form H, ((1S,2S,4R)-4-{4-[(1S)-2,3-dihydro-1H-inden-1-ylamino]-7H-pyrrolo[2,3-d]pyrimidin-7-yl}-2-hydroxycyclopentyl)methyl sulfamate]
Observations After Stress ([1]; ~75% RH stress, ~3 days): Free flowing solids | Observations After Stress ([1]; ~97% RH stress, ~2 days): Free flowing solids | solubility (physchem): < 1000 µg/mL

SMILES: NS(=O)(=O)OC[C@@H]1C[C@@H](n2ccc3c(N[C@H]4CCc5ccccc54)ncnc32)C[C@@H]1O [Form J, ((1S,2S,4R)-4-{4-[(1S)-2,3-dihydro-1H-inden-1-ylamino]-7H-pyrrolo[2,3-d]pyrimidin-7-yl}-2-hydroxycyclopentyl)methyl sulfamate]
Observations After Stress ([1]; ~75% RH stress, ~3 days): Free flowing solids | Observations After Stress ([1]; ~97% RH stress, ~2 days): Free flowing solids

SMILES: NS(=O)(=O)OC[C@@H]1C[C@@H](n2ccc3c(N[C@H]4CCc5ccccc54)ncnc32)C[C@@H]1O [Form L, ((1S,2S,4R)-4-{4-[(1S)-2,3-dihydro-1H-inden-1-ylamino]-7H-pyrrolo[2,3-d]pyrimidin-7-yl}-2-hydroxycyclopentyl)methyl sulfamate]
Observations After Stress ([1]; ~75% RH stress, ~4 days): Free flowing solids | Observations After Stress ([1]; ~97% RH stress, ~1 day): Free flowing solids
